From article PMC6203852 (British Journal of Cancer, 2018)

Columns and labels:
[1] = Plasma pharmacokinetics of ARQ 501 (β-lapachone) after intravenous ARQ 761 (UHPLC-MS/MS, two-compartment model); assay type: in vivo, human; conditions: plasma ARQ 501 after ARQ 761 infusions
Protocol: During the first and fourth infusions of study drug, serial blood samples for determination of plasma ARQ 501 levels were drawn at the following time points: pre-infusion, infusion start, 15 min, 30 min, 60 min, 120 min (for the 2-h infusion cohort), 15 min post-infusion, 1 h post-infusion, 3 h post-infusion, 5 h post-infusion, 24 h post-infusion, 48 h post-infusion, and 168 h post-infusion. ARQ 501 plasma concentrations were determined using an ultra-high-performance liquid chromatography tandem mass spectrometric analytical method. This method utilised a Nexera Series UHPLC system (Shimadzu Corporation, Kyoto, Japan), which was interfaced with a Sciex QTRAP 5500 mass spectrometer (Foster City, CA, USA).
Sample preparation included a liquid–liquid extraction of ARQ 501 and the internal standard dihydrotanshone (IS) from plasma. Briefly, 100 µL of a 700 ng/mL solution of IS in methanol:acetonitrile (3:1) was added to a 2-mL Eppendorf tube and spun to dryness on a CentriVap benchtop vacuum concentrator (Labconco, Kansas City, USA). To the dried tube, 25-µL aliquots of plasma, 25-µL of blank plasma, and 200-µL de-ionised water were added and vortex mixed. To the resultant solution, a 1-mL aliquot of methyl tert-butyl ether:ethyl acetate (1:1) was added. The mixture was shaken for 10 min at 2500 rpm on a VWR shaker. Samples were then centrifuged for 10 min at 4000 rpm at 4.0 °C. […]

[2] = cited from earlier work
[3] = set-up: method as in PMID 22532167; conditions: animal models; cited from earlier work

CC1(C)CCC2=C(O1)c1ccccc1C(=O)C2=O [ARQ 501, β-lapachone]
Accumulation, Dose 1 vs. Dose 4 [1]: does not accumulate to any appreciable extent
Predominant dose-limiting toxicity (DLT) [2]: haemolytic anaemia
MTD ([2]; earlier ARQ 501 compound, no reference given): 390 mg/m^2
Duration of methemoglobinaemia [3]: 5 min
